Source: patent US20240173325A1, “METHODS FOR TREATING SPINAL MUSCULAR ATROPHY” (Genentech, Inc., priority 2022, published 2024)
Entries after “also recorded” stand apart in the source; their conditions may differ.

What was measured:
rat fetuses = details: dams treated at about 1 mg/kg/day to about 7.5 mg/kg/day; cited from earlier work
clinical = test: clinical; parameters: species or system human; details: in vivo
Procedure: The fetal subject assigned to this treatment plan received risdiplam through the carrier after all basic organ systems of the fetal subject had substantially completed fundamental embryogenesis in its third trimester of development in a range of from about thirty-two and a half weeks to its delivery from the carrier at about thirty-eight and a half weeks gestation. During this period, risdiplam was administered to the fetal subject through a carrier treatment cycle in which a single daily dose of 5 mg of risdiplam was administered orally to the carrier of the fetal subject.
Risdiplam trough drug levels were obtained from the carrier and the subject as the neonatal subject at time points represented in Table 2A and Table 2B from 32.5 weeks gestation prior to administration of risdiplam to the carrier through 43 days post-delivery. The risdiplam drug levels detected in plasma (ng/mL) of the carrier and the neonatal subject were determined by liquid chromatography-tandem mass spectroscopy (LC-MS/MS).
Since it was determined that a level of the risdiplam in the cord blood of the neonatal subject was less than about 100 ng/mL or about 0.1 mg/L when the neonatal subject was bom, the neonatal treatment cycle was initiated. The neonatal treatment cycle began 8 days after birth (d8) and included administering risdiplam to the neonatal subject at a single daily dose of 0.15 mg/kg.
In addition, in Table 3, blood samples for risdiplam PK and PD were collected from the carrier prior to the first dose of the risdiplam and 24-hours post- dose of the risdiplam. PK/PD samples were collected from the carrier every two weeks for up to six weeks after delivery to assess risdiplam clearance. At the time of delivery, samples of umbilical cord blood and amniotic fluid were collected to assess risdiplam exposure to the fetal subject in utero. Collection of the cord blood and the amniotic fluid could have also included collection of the cord blood and the amniotic fluid during pregnancy of the carrier if an amniocentesis was deemed to be needed.

[1] = Treatment emergent adverse events and safety monitoring of carrier, fetal subject and neonatal subject; assay type: in vivo, human; parameters: key to Serious (Y/N) / Study Term (Y/N): “Y” refers to yes; “N” refers to no; details: for Adverse Event or MedDRA Term: exposed in utero, oral 0.15 mg/kg from 8 days post-birth, 0.15 mg/kg
From the text: X1 included routine monitoring of the carrier for the third trimester, specifically with regards to development of hypertension and features of pre-eclampsia or HELLP syndrome, with related blood and urine testing. X1 also included monitoring nausea, vomiting, or dehydration in the carrier and placental integrity and amniotic fluid volume. X1 further included fetal monitoring for fetal growth, organ system development, and fetal well- being and any signs of organ maldevelopment, especially in the brain, heart, kidney, and liver. A baseline pre-treatment full anatomical ultrasound study and growth scan were performed and subsequent ultrasonography occurred at three and six weeks before delivery of the fetal subject as the neonatal subject.
Also in Table 3, “X2” included safety labs for the carrier, such as the CBC screening, the CMP screening, and the UA, to assess potential toxicity from risdiplam, which were collected before dosing and then prior to delivery. The safety labs were collected at the baseline before dosing, then every 3-4 weeks up to delivery, including pre-operatively prior to the scheduled cesarean section. More frequent testing may occur if clinically indicated.
In Table 4, the “X5” post-delivery PK/PD collection and safety labs of the neonatal subject included CBC screening, CMP screening, and UA, and such safety labs could be repeated if the results are deemed abnormal as compared to a healthy individual.
Table 5 summarizes results of the carrier and the fetal subject clinical assessments during the pregnancy of the carrier when exposed to risdiplam and in the neonatal subject for 6 weeks following delivery, for a minimum of 30 days following the last dose of risdiplam.
Specifically, Table 5 depicts the treatment emergent adverse events, seriousness of the event, intensity of the adverse event, relatedness of the adverse event to administration of the risdiplam, study term, and start and end dates for the adverse event the detected from this Example.
Each adverse event term is associated with a Medical Dictionary for Regulatory Activity (or MedDRA) term and the intensity is categorized based on the CTCAE grading. In Table 5, “Y” refers to yes and “N” refers to no and the intensity is measured from a lowest level of intensity or “I” to a highest level of intensity or “V.” “VSD” is a ventricular septal defect, “GERD” is gastroesophageal reflux disease, and “NICU” refers to neonatal intensive care unit.

[2] = rodents and rabbits; cited from earlier work

Risdiplam level in amniotic fluid (AF) (clinical; female, human): 5.09 ng/mL | Risdiplam level in plasma, venous (V) (clinical; female, human): 15.6 ng/mL | concentration at 43 d postnatal (clinical; female, human): 0.4 ng/mL | Risdiplam level in plasma (clinical; female, human, 20 d postnatal): 0.7 ng/mL | Risdiplam level in plasma (clinical; female, human, 29 d postnatal): 0.6 ng/mL | Kp (clinical; female, human, Amniotic fluid risdiplam level relative to carrier plasma venous level): ~0.33 | Kp (clinical; female, human, Cord venous and arterial plasma risdiplam level relative to carrier plasma level): ~0.69 | Level of risdiplam in cord blood (clinical; human): less than 100 ng/mL | Risdiplam level in cord plasma, arterial (A) (clinical; human): 10.4 ng/mL | Risdiplam level in cord plasma, venous (V) (clinical; human): 11.2 ng/mL | half-life (clinical; human): 46 h | Risdiplam level in plasma (clinical; human, 8 d postnatal): 0.6 ng/mL | concentration at 43 d postnatal (clinical; human, po, 0.15 mg/kg/day): 62 ng/mL | Risdiplam trough level in plasma (clinical): BLQ* | Placental transfer from carrier to fetal subject (clinical; po): crosses the placenta
Structure (SMILES): Cc1cn2nc(-c3cc(=O)n4cc(N5CCNC6(CC6)C5)ccc4n3)cc(C)c2n1 [risdiplam, 7-(4,7-diazaspiro[2.5]octan-7-yl)-2-(2,8-dimethylimidazo[1,2-b]pyridazin-6-yl)-4H-pyrido[1,2-a]pyrimidin-4-one]
Findings in rat fetuses (rat fetuses): weight loss and minor differences in skeletal ossification | Serious (Y/N) ([1]; carrier adverse events): N | Study Term (Y/N) ([1]; carrier adverse events): N | Overall safety and tolerability ([1]; carrier and subject as fetal and neonatal subject): no drug-related adverse events; also recorded: safe and well tolerated | Surveillance labs during pregnancy ([1]; carrier while on risdiplam): normal until proteinuria was detected at 36WG | Fetal ultrasound assessments ([1]; fetal subject during carrier treatment): unremarkable | Biophysical profiles ([1]; fetal subject, each time point): normal | CBC, CMP, and U/A ([1]; neonatal subject): normal | Study Term (Y/N) ([1]; neonatal subject adverse events): N | Adverse Event or MedDRA Term ([1]; neonatal subject, adverse event number 1): Respiratory | Adverse Event or MedDRA Term ([1]; neonatal subject, adverse event number 2): Congenital disorder | Adverse Event or MedDRA Term ([1]; neonatal subject, adverse event number 3): Weight gain | Placental transfer [2]: crosses the placenta
